Assay [1] addresses T1, native human transporter glyt1 (Homo sapiens, UniProt P48067).
T1 construct: SK-N-MC cells (human neuroepithelial cells) expressing the native human transporter glyt1; endogenous in cells; host or cells: SK-N-MC cells (human neuroepithelial cells)
T1 sequence (P48067 1-706): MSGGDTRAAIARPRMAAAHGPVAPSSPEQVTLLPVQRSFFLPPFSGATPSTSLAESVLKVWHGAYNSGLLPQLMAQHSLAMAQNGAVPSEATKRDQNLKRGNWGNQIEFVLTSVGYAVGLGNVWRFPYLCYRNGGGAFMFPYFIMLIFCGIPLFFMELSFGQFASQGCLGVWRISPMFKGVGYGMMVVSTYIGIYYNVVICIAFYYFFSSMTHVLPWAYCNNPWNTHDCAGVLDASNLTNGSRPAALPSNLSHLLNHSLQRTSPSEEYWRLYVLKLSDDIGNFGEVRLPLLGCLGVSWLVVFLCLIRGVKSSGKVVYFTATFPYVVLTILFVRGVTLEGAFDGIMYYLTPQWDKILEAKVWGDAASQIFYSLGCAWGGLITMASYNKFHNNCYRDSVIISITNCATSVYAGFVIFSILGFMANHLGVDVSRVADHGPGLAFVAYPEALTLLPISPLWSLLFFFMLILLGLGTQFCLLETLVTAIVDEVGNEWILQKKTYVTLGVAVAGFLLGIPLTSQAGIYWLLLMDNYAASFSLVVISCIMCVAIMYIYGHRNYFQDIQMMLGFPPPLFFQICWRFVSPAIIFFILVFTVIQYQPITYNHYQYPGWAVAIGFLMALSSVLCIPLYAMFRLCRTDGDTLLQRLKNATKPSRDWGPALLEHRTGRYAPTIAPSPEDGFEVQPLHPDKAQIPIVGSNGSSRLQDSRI
Briefly: Glycine transportation ([14C]glycine uptake) in SK-N-MC cells expressing the native human transporter glyt1. Type of assay: cell-based. The following applies: 10 μM [14C]glycine, 10 minutes at 37° C., read-out: IC50, concentration of compound that reduces by 50% the specific uptake of glycine. Here is the method:
Study of Glycine Transportation in SK-N-MC Cells Expressing the Native Human Transporter glyt1
The uptake of [^14C]glycine is studied in SK-N-MC cells (human neuroepithelial cells) expressing the native human transporter glyt1 by measuring the radioactivity incorporated in the presence or absence of the test compound. The cells are cultured as a monolayer for 48 hours in plates pretreated with 0.02% fibronectin. On the day of the experiment, the culture medium is removed and the cells are washed with Krebs-HEPES buffer ([4-(2-hydroxyethyl)-1-piperazineethanesulfonic acid) at pH 7.4. After preincubation for 10 minutes at 37° C. in the presence either of buffer (control batch) or of test compound at various concentrations or of 10 mM glycine (determination of the nonspecific uptake), 10 μM of [^14C]glycine (specific activity 112 mCi/mmol) are then added.
Incubation is continued for 10 minutes at 37° C., and the reaction is quenched by washing twice with pH 7.4 Krebs-HEPES buffer. The radioactivity incorporated by the cells is then estimated after adding 100 μl of liquid scintillant and stirring for 1 hour. Counting is performed on a Microbeta Tri-Lux™ counter. The efficacy of the compound is determined by means of the IC50, which is the concentration of compound that reduces by 50% the specific uptake of glycine, defined by the difference in radioactivity incorporated by the control batch and the batch that received 10 mM of glycine.

Assay [2] has as its target T2, transporter glyt2 (Mus musculus, UniProt Q761V0).
T2 construct: from tissue; host or cells: spinal cord of male OF1 Iffa Credo mice
T2 sequence (Q761V0 1-799): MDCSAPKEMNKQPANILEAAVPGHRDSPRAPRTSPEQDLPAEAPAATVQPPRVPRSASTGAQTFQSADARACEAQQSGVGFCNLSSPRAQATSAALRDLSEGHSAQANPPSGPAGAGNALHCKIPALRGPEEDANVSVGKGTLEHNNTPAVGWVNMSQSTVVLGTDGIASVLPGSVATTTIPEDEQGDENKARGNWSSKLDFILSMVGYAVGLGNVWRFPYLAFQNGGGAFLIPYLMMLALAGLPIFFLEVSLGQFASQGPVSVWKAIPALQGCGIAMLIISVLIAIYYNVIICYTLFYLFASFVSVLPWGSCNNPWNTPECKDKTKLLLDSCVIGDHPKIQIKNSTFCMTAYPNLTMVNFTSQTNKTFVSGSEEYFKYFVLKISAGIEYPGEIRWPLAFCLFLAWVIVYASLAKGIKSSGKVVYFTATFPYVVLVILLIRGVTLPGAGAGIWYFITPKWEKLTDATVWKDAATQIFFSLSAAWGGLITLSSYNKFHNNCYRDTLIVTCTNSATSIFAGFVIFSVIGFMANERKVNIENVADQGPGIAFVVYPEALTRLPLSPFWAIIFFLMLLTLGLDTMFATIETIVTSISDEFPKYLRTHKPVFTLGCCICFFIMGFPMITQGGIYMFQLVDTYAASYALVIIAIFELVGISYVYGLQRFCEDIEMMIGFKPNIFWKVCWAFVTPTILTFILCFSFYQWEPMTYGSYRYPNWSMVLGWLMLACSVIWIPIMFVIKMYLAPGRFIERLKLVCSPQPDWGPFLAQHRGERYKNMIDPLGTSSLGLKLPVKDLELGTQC
Briefly: Glycine transportation ([14C]glycine uptake) in mouse spinal cord homogenate. The conditions noted are these: 10 μM [14C]glycine, 10 minutes at 25° C., read-out: IC50, concentration capable of reducing by 50% the specific uptake of glycine. The class given is biochemical. From the text: Study of the Glycine Transportation in Mouse Spinal Cord Homogenate
The uptake of [^14C]glycine by the transporter glyt2 is studied in mouse spinal cord homogenate by measuring the radioactivity incorporated in the presence or absence of test compound.
After euthanizing the animals (male OF1 Iffa Credo mice weighing 20 to 25 g on the day of the experiment), the spinal cord of each animal is rapidly removed, weighed and stored on ice. The samples are homogenized in pH 7.4 Krebs-HEPES buffer ([4-(2-hydroxyethyl)-1-piperazineethanesulfonic acid), in a proportion of 25 ml/g of tissue.
50 μl of homogenate are preincubated for 10 minutes at 25° C. in the presence of pH 7.4 Krebs-HEPES buffer and of test compound at various concentrations, or of 10 mM of glycine to determine the nonspecific uptake. [^14C]glycine (specific activity=112 mCi/mmol) is then added over 10 minutes at 25° C. to a final concentration of 10 μM. The reaction is quenched by vacuum filtration and the radioactivity is estimated by solid scintillation by counting on a Microbeta Tri-Lux™ counter. The efficacy of the compound is determined by means of the IC50, the concentration capable of reducing by 50% the specific uptake of glycine, defined by the difference in radioactivity incorporated by the control batch and the batch that received 10 mM of glycine.

This is an account of results in patent publication US7790753B2, “Derivatives of N-[phenyl(alkylpiperidine-2-yl)methyl]benzamide, preparation method thereof and application of same in therapeutics” (sanofi-aventis, priority 2003, dated 2010).

Structures can show the parent of a compound that is named as a salt.

For `CC1CCCC(C(NC(=O)c2cccc(C(F)(F)F)c2Cl)c2ccccc2)N1C` (stereo not drawn) [Compound 1, Cis-threo-2-chloro-N-[(1,6-dimethyl-2-piperidyl)(phenyl)methyl]-3-(trifluoromethyl)benzamide hydrochloride 1:1], the IC50 in assay [1] is 0.51 µM; in assay [2], 0.12 µM.
As to `CN1CCCCC1(C)C(NC(=O)c1cccc(C(F)(F)F)c1Cl)c1ccccc1` (stereo not drawn) [Compound 10, Threo-2-chloro-N-[(1,2-dimethyl-2-piperidyl)(phenyl)methyl]-3-(trifluoromethyl)benzamide hydrochloride 1:1], the IC50 in assay [1] came out at 0.008 µM.
On to `CC1CCN(C)C(C(NC(=O)c2cccc(C(F)(F)F)c2Cl)c2ccccc2)C1` (stereo not drawn) [Compound 9, Cis-threo-2-chloro-N-[(1,4-dimethyl-2-piperidyl)(phenyl)methyl]-3-(trifluoromethyl)benzamide hydrochloride 1:1], for which the IC50 amounted to 0.09 µM in assay [1] and 0.07 µM in assay [2].
Regarding `CC1CCC(C(NC(=O)c2cccc(C(F)(F)F)c2Cl)c2ccc(F)cc2)N(C)C1` (stereo not drawn) [Compound 5, Trans-threo-2-chloro-N-[(1,5-dimethyl-2-piperidyl)(4-fluorophenyl)methyl]-3-(trifluoromethyl)benzamide hydrochloride 1:1], the IC50 in assay [1] turned out to be 0.1 µM.
